From ChEMBL document CHEMBL3608235, “Pyrroloaryls and pyrroloheteroaryls: Inhibitors of the HIV fusion/attachment, reverse transcriptase and integrase” (Bioorg Med Chem, 2015)
Values after ≈ are worked out from the molar mass of the structure shown.

Key:
[1] = Selectivity index, ratio of CC50 for mock-infected human MT4 cells to EC50 for HIV1 infected in human MT4 cells; assay type: toxicity, cell-based; conditions: MT4 cells (mock-infected and HIV1-infected), read-out: Ratio CC50/EC50
[2] = Selectivity index, ratio of IC50 for human C8166 cells to EC50 for HIV1 3B infected in human C8166 cells; assay type: toxicity, cell-based; conditions: C8166 cells (uninfected and HIV1 3B-infected), read-out: Ratio IC50/EC50
[3] = Selectivity index, ratio of IC50 for human CEM-SS cells to EC50 for HIV1 infected in human CEM-SS cells; assay type: toxicity, cell-based; conditions: CEM-SS cells (uninfected and HIV1-infected), read-out: Ratio IC50/EC50
[4] = tested on: Human immunodeficiency virus; assay: Antiviral activity against HIV; assay type: functional, organism-based; conditions: Human immunodeficiency virus 1
[5] = tested on: Human immunodeficiency virus 1; assay: Antiviral activity against HIV1 3B infected in human MT2 cells assessed as reduction in virus-induced cell death; assay type: functional; conditions: Human immunodeficiency virus 1, 3B
[6] = Cytotoxicity against human MT2 cells; assay type: cell-based; conditions: read-out: TC50 (the source's name)
[7] = tested on: Human immunodeficiency virus; assay: Antiviral activity against HIV by XTT assay; assay type: functional, organism-based; conditions: Human immunodeficiency virus 1
KB = assay: Cytotoxicity against human KB cells; assay type: cell-based
[8] = Toxicity against human U373-MAGI-CXCR4-CEM cells; assay type: cell-based
[9] = tested on: Human immunodeficiency virus 1; assay: Antiviral activity against HIV1 SF2; assay type: functional, organism-based; conditions: Human immunodeficiency virus 1, SF2
[10] = tested on: Human immunodeficiency virus 1; assay: Antiviral activity against HIV1 BCF02 assessed as inhibition of virus mediated cell fusion between CEMx174 5.25M7 cells and […] cells; assay type: functional, organism-based; conditions: Human immunodeficiency virus 1, BCF02, CEMx174 5.25M7
[11] = tested on: Human immunodeficiency virus 1; assay: Antiviral activity against HIV1 SF162 assessed as inhibition of virus mediated cell fusion between CEMx174 5.25M7 cells and PBMC/HIV1 SF162 cells; assay type: functional, organism-based; conditions: Human immunodeficiency virus 1, SF162, CEMx174 5.25M7
[12] = Toxicity against human U87-T4-CXCR4 cells; assay type: cell-based, U-87MG ATCC
[13] = tested on: Human immunodeficiency virus 1; assay: Antiviral activity against HIV1 93TH051 assessed as inhibition of virus mediated cell fusion between CEMx174 5.25M7 cells and PBMC/HIV1 93TH051 cells; assay type: functional, organism-based; conditions: Human immunodeficiency virus 1, 93TH051, CEMx174 5.25M7
[14] = tested on: Human immunodeficiency virus 1; assay: Antiviral activity against HIV1 93BR020 assessed as inhibition of virus mediated cell fusion between CEMx174 5.25M7 cells and PBMC/HIV1 93BR020 cells; assay type: functional, organism-based; conditions: Human immunodeficiency virus 1, 93BR020, CEMx174 5.25M7
[15] = tested on: Human immunodeficiency virus 1; assay: Antiviral activity against HIV1 92UG029 assessed as inhibition of virus mediated cell fusion between CEMx174 5.25M7 cells and […] cells; assay type: functional, organism-based; conditions: Human immunodeficiency virus 1, 92UG029, CEMx174 5.25M7
[16] = tested on: Human immunodeficiency virus 1; assay: Antiviral activity against HIV1 3B assessed as inhibition of virus mediated cell fusion between MT2 cells and H9/HIV1 3B cells; assay type: functional, organism-based; conditions: Human immunodeficiency virus 1, 3B
[17] = tested on: Human immunodeficiency virus 1; assay: Antiviral activity against HIV1 3B; assay type: functional, organism-based; conditions: Human immunodeficiency virus 1, 3B
[18] = tested on: Human immunodeficiency virus 1; assay: Antiviral activity against HIV1 RF; assay type: functional, organism-based; conditions: Human immunodeficiency virus 1, RF
[19] = Toxicity against human CEMx174 5.25M7 cells; assay type: cell-based
[20] = Toxicity against human MT2 cells; assay type: cell-based
[21] = tested on: Human immunodeficiency virus 1; assay: Antiviral activity against HIV1; assay type: functional, organism-based
[22] = tested on: Human immunodeficiency virus; assay: Antiviral activity against HIV expressing raltegravir-resistant integrase mutants; assay type: functional, organism-based; conditions: Human immunodeficiency virus 1
[23] = tested on: Human immunodeficiency virus 1; assay: Antiviral activity against HIV1 3B infected in human primary lymphocytes assessed as reduction in p24 production incubated for 4 days by ELISA method; assay type: functional, organism-based; conditions: Human immunodeficiency virus 1, 3B, 96 h
PBL = assay: Cytotoxicity against human PBL cells incubated for 4 days by MTT assay; assay type: cell-based; conditions: 96 h
[24] = tested on: Human immunodeficiency virus 1; assay: Antiviral activity against CXCR4-tropic HIV1 LAI infected in human MT2 cells by monogram phenosense entry assay; assay type: functional, organism-based; conditions: Human immunodeficiency virus 1, LAI
[25] = tested on: Human immunodeficiency virus 1; assay: Antiviral activity against CCR5-tropic HIV1 JRFL infected in human PM1 cells by monogram phenosense entry assay; assay type: functional, organism-based; conditions: Human immunodeficiency virus 1, JRFL
[26] = tested on: Human immunodeficiency virus 1; assay: Antiviral activity against CXCR4-tropic HIV1 3B infected in human MT2 cells by monogram phenosense entry assay; assay type: functional, organism-based; conditions: Human immunodeficiency virus 1, 3B
[27] = tested on: Human immunodeficiency virus 1; assay: Antiviral activity against CXCR4-tropic HIV1 MN infected in human MT2 cells by monogram phenosense entry assay; assay type: functional, organism-based; conditions: Human immunodeficiency virus 1, MN
[28] = tested on: Human immunodeficiency virus 1; assay: Antiviral activity against CCR5-tropic HIV1 BAL infected in human PM1 cells by monogram phenosense entry assay; assay type: functional, organism-based; conditions: Human immunodeficiency virus 1, BAL
[29] = tested on: Human immunodeficiency virus 1; assay: Antiviral activity against CCR5-tropic HIV1 SF162 infected in human PM1 cells by monogram phenosense entry assay; assay type: functional, organism-based; conditions: Human immunodeficiency virus 1, SF162, PM1
[30] = tested on: Human immunodeficiency virus 1; assay: Antiviral activity against CXCR4-tropic HIV1 NL4-3 infected in human MT2 cells by monogram phenosense entry assay; assay type: functional, organism-based; conditions: Human immunodeficiency virus 1, NL4-3, MT2
[31] = tested on: Human immunodeficiency virus 1; assay: Antiviral activity against HIV1 infected in human MT4 cells; assay type: functional, organism-based; conditions: Human immunodeficiency virus 1, MT4
[32] = Inhibition of HIV1 LTR-mediated transcription assessed as drug level causing 50% inhibition of protein/RNA complex formation incubated for 15 mins; set-up: species or system Human immunodeficiency virus
[33] = tested on: Human immunodeficiency virus 2; assay: Antiviral activity against HIV2 by XTT assay; assay type: functional, organism-based
[34] = tested on: Human immunodeficiency virus; assay: Antiviral activity against HIV by syncytial plaque assay; assay type: functional, organism-based; conditions: Human immunodeficiency virus 1
[35] = tested on: Human immunodeficiency virus 1; assay: Antiviral activity against HIV1 by XTT assay; assay type: functional, organism-based

SMILES: Cc1ccnc2c1NC(=O)c1cccnc1N2C1CC1 [NEVIRAPINE]
- selectivity ratio [1]: > 800
- selectivity ratio [2]: > 250
- selectivity ratio [3]: 525

SMILES: N#Cc1cn(COCCO)c2ncnc(N)c12
- IC50 [4]: 46 µM

SMILES: O=C1[C@H](Cc2ccc(O)cc2)n2cccc2-c2ccccc2N1CCc1ccc(O)cc1
- IC90 [5]: 0.8 mg/L (≈ 1.88 µM)
- CC50 [6]: 10 mg/L (≈ 23.6 µM)

SMILES: O=Cc1ccc2n1[C@@H](Cc1ccccc1)C(=O)Nc1ccccc1-2
- IC90 [5]: > 0.29 mg/L

SMILES: O=C1c2ccccc2C(=O)N1CCCCCN1C(=O)[C@H](Cc2ccc(O)cc2)n2cccc2-c2ccccc21
- IC90 [5]: 2.6 mg/L (≈ 5 µM)
- CC50 [6]: > 50 mg/L

SMILES: CN1N=C(N)c2cn([C@@H]3O[C@H](CO)[C@@H](O)[C@H]3O)c3nc(-c4ccccc4)nc1c23
- IC50 [7]: 3 µM
- EC50 (KB): > 100 µM

SMILES: O=C(O)c1cc(-n2cccc2)ccc1Cl
- CC50 [8]: > 4000 µM
- EC50 [9]: 4.75 µM
- EC50 [10]: 46.4 µM
- EC50 [11]: 93.1 µM
- CC50 [12]: > 4000 µM
- EC50 [13]: 57.3 µM
- EC50 [14]: 10.1 µM
- EC50 [15]: 29 µM
- EC50 [16]: 29.9 µM
- EC50 [17]: 2.21 µM
- EC50 [18]: 3.58 µM
- CC50 [19]: > 4000 µM
- CC50 [20]: > 4000 µM

SMILES: CN1N=C(N)c2cn([C@H]3CC[C@@H](CO)O3)c3ncnc1c23
- EC50 [21]: 21 µM

SMILES: CC(=O)OCC1=C2C(=O)N(Cc3ccc(F)c(Cl)c3)C(=O)C2=C(O)C(=O)C1
- IC50 [22]: 12.3 µM

SMILES: Cn1ccc2c1C(=O)Nc1ccccc1S2
- EC50 [23]: 16 µM
- EC50 (PBL): > 434 µM

SMILES: O=C(C[C@H]1C(=O)Nc2ccccc2-c2cccn21)OCc1ccccc1
- IC90 [5]: 0.29 mg/L (≈ 0.837 µM)
- CC50 [6]: 10 mg/L (≈ 28.9 µM)

SMILES: COc1cnc(-n2cnc(C)n2)c2[nH]cc(C(=O)C(=O)N3CCN(C(=O)c4ccccc4)CC3)c12 [TEMSAVIR]
- EC50 [24]: 0.0007 µM
- EC50 [25]: 0.0004 µM
- EC50 [26]: 0.0162 µM
- EC50 [27]: 0.0148 µM
- EC50 [28]: 0.0017 µM
- EC50 [29]: 0.0005 µM
- EC50 [30]: 0.0022 µM

SMILES: CSc1c(C#N)c2c(N)ncnc2n1COC(CO)CO
- IC50 [4]: 20 µM

SMILES: CC(=O)OCC1=C2C(=O)N(Cc3ccc(F)c(Cl)c3)C(=O)C2=C(O)C(=O)C1C(C)C (centres undefined)
- IC50 [22]: 15.6 µM

SMILES: CCOC(=O)c1cc2c3cc(OC)ccc3c3ccc(N)cc3n2c1C
- EC50 [31]: 120 µM

SMILES: COc1cc2c(cc1OCCC(=O)Nc1cc(C(=O)Nc3cc(C(=O)Nc4cc(C(=O)Nc5cc(C(=O)NCCC(=N)N)n(C)c5)n(C)c4)n(C)c3)n(C)c1)N=C[C@@H]1CCCN1C2=O
- AC50 [32]: 10 µM

SMILES: N#Cc1cn(COC(CO)CO)c2nc(N)nc(O)c12
- IC50 [4]: 3 µM

SMILES: CN1N=C(N)c2cn([C@@H]3O[C@H](COP(=O)(O)O)[C@@H](O)[C@H]3O)c3ncnc1c23 [TRICIRIBINE PHOSPHATE]
- IC50 [33]: 0.02 µM
- IC50 [34]: 0.01 µM
- IC50 [35]: 0.02 µM

SMILES: CN1C(=O)c2ccn(C)c2S(=O)(=O)c2ccccc21
- EC50 [23]: 14 µM
- EC50 (PBL): > 362 µM

SMILES: CN1C(=O)[C@H](Cc2ccc(O)cc2)n2cccc2-c2ccccc21
- IC90 [5]: > 0.29 mg/L

SMILES: C[C@@H]1CN(C(=O)c2ccccc2)CCN1C(=O)C(=O)c1c[nH]c2cccnc12
- EC50 [21]: 0.0016 µM
